Experimental data published in patent US20210276978A1, “INHIBITORS OF HISTONE DEACETYLASE” (Alkermes, Inc., priority 2018, published 2021).

Columns and labels:
HDAC2 = target: T1, HDAC2 (Homo sapiens, UniProt Q92769); test: HDAC2 enzymatic inhibition assay in SH-SY5Y cell lysate with an exogenous substrate (HDAC-Glo 2); format: cell-based; details: for IC50: SH-SY5Y cells
T1 construct: host or cells: SH-SY5Y cells
Method: HDAC2 Enzymatic Inhibition Assay in SH-SY5Y Cell Lysate with an Exogenous Substrate
SH-SY5Y cells (Sigma) were cultured in Eagle's Modified Essential Medium supplemented with 10% fetal bovine serum and pen/strep. Twenty-four hours prior to compound dosing 20 uL of cells were plated in white 384 well plates at a density of 1,500 cells/well. Compounds were serially diluted in neat DMSO and then diluted 1:100 v/v into media without FBS and mixed. Media was removed from the plated cells and the diluted compounds in serum free media (1% v/v final DMSO) were added and incubated at 37.0 for five hours. Ten uL of HDAC-Glo 2 reagent with 0.1% Triton X-100 was then added, the plate was mixed and allowed to develop at room temperature for 100 minutes. Plates were then read with a Spectramax LMax luminometer employing a 0.4 s integration time. Dose response curves were constructed with normalized data where CI-994 at 100 uM was defined as 100% inhibition and DMSO alone as 0% inhibition.
In the table, “A” indicates a IC50 value of less than 0.5 μM; “B” a IC50 value from 0.5 μM to 1.0 μM; “C” a IC50 value of greater than 1.0 μM and less than or equal to 2.0 μM; and “D” indicates an IC50 value of greater than 2.0 μM. NT=Not Tested.

Full length Human HDAC1 = target: T2, Full length Human HDAC1 (Homo sapiens, UniProt Q13547); test: HDAC1 enzymatic assay (deacetylation of FAM-labeled peptide substrate, microfluidic electrophoresis); format: biochemical; details: 1 uM substrate peptide
T2 construct: Full length Human HDAC1 with; His (C); FLAG (C); host or cells: baculovirus expression system
T2 sequence (Q13547 whole entry): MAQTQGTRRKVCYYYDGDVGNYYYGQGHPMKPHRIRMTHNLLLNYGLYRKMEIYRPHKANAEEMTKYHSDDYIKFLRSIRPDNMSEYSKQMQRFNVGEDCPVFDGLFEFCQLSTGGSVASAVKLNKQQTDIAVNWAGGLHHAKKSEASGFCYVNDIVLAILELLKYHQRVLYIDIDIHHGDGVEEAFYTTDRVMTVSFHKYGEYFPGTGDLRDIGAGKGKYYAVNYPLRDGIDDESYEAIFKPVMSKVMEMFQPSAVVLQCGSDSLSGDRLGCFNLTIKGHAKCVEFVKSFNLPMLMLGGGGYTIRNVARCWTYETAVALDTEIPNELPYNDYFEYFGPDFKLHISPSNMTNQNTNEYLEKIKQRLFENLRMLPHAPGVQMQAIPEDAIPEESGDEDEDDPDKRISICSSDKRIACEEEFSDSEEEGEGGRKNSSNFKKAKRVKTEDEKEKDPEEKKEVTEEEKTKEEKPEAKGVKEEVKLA
Method: (§1) HDAC2 and HDAC1 Enzymatic Assay (HDAC2 and HDAC1 IC50 Data)
(§2) The following describes an assay protocol for measuring the deacetylation of a peptide substrate by HDAC2 or HDAC1.
(§3) HDAC protein composition and respective substrate peptides are summarized below.
(§4) HDAC reactions are assembled in 384 well plates (Greiner) in a total volume of 20 µL as following:
(§5) HDAC proteins are pre-diluted in the assay buffer comprising: 100 mM HEPES, pH 7.5, 0.1% BSA, 0.01% Triton X-100, 25 mM KCl and dispensed into 384 well plate (10 uL per well).
(§6) Test compounds are serially pre-diluted in DMSO and added to the protein samples by acoustic dispensing (Labcyte Echo). Concentration of DMSO is equalized to 1% in all samples.
(§7) Control samples (0%-inhibition in the absence of inhibitor, DMSO only) and 100%-inhibition (in the absence of enzyme) are assembled in replicates of four and used to calculate the %-inhibition in the presence of compounds.
(§8) At this step compounds can be pre-incubated with enzyme if desired.
(§9) The reactions are initiated by addition of 10 uL of the FAM-labeled substrate peptide pre-diluted in the same assay buffer. Final concentration of substrate peptide is 1 uM (HDAC1-2). The reactions are allowed to proceed at room temperature. Following incubation, the reactions are quenched by addition of 50 µL of termination buffer (100 mM HEPES, pH7.5, 0.01% Triton X-100, 0.1% SDS). Terminated plates are analyzed on a microfluidic electrophoresis instrument (Caliper LabChip® 3000, Caliper Life Sciences/Perkin Elmer) which enables electrophoretic separation of de-acetylated product from acetylated substrate. A change in the relative intensity of the peptide substrate and product is the parameter measured. Activity in each test sample is determined as the product to sum ratio (PSR): P/(S+P), where P is the peak height of the product, and S is the peak height of the substrate. Percent inhibition (Pinh) is determined using the following equation: Pinh=(PSR0% inh−PSRcompound)/(PSR0% inh−PSR100% inh)*100, in which: PSRcompound is the product/sum ratio in the presence of compound, PSR0% inh is the product/sum ratio in the absence of compound and the PSR100% inh is the product/sum ratio in the absence of the enzyme. To determine IC50 of compounds (50%-inhibition) the %-inh data (Pinh versus compound concentration) are fit by a 4 parameter sigmoid dose-response model using XLfit software (IDBS).
(§10) In the table, “A” indicates a IC50 value of less than 0.5 “B” a IC50 value from 0.5 μM to 1.0 μM; “C” a IC50 value of greater than 1.0 μM and less than or equal to 2.0 μM; and “D” indicates an IC50 value of greater than 2.0 NT=Not Tested.

Full length Human HDAC2 = target: T3, Full length Human HDAC2 (Homo sapiens, UniProt Q92769); test: HDAC2 enzymatic assay (deacetylation of FAM-labeled peptide substrate, microfluidic electrophoresis); format: biochemical; details: 1 uM substrate peptide
T3 construct: Full length Human HDAC2 with; FLAG (C); host or cells: baculovirus expression system
T3 sequence (Q92769 whole entry): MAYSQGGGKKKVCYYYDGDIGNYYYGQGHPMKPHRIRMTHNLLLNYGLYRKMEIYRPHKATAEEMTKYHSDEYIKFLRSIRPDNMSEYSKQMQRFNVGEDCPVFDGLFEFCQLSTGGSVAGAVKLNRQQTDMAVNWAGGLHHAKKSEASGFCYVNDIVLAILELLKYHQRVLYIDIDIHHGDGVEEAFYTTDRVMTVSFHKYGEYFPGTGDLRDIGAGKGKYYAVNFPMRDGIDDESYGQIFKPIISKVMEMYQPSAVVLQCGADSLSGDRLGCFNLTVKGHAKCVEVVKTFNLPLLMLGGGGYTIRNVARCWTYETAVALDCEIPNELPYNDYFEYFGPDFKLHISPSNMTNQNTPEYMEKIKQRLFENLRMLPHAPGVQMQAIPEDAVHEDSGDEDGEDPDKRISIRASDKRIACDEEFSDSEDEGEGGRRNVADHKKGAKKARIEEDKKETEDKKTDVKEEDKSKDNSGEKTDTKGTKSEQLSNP
Method: as §1, §2, §3, §4, §5, §6, §7, §8, §9, §10

[1] = five hours incubation, HDAC-Glo 2 reagent, class symbols
[2] = HDAC-Glo 2, numeric values, Table 4
[3] = HDAC2 SH-SY5Y cell lysate assay

T1 sequence (Q92769 whole entry): as above

Nc1ccc(-c2ccc(F)s2)nc1NC(=O)N1CCC(F)(c2ncccn2)C1 (stereo not shown) [Compound 45] showed an IC50 (HDAC2; [1]) of 500 to 1000 nM, an IC50 (Full length Human HDAC1) of 500 to 1000 nM and an IC50 (Full length Human HDAC2) of 1000 to 2000 nM.
For Nc1ccc(-c2ccccc2F)nc1NC(=O)N1CCC(c2ncc(F)cn2)C1 (stereo not shown) [Compound 21], the IC50 (HDAC2; [1]) was 1000 to 2000 nM, the IC50 (Full length Human HDAC1) was 500 to 1000 nM and the IC50 (Full length Human HDAC2) was 1000 to 2000 nM.
For Nc1ccc(-c2ccc(F)cc2)nc1NC(=O)N1CCC(c2ncc(F)cn2)C1 (single isomer, unassigned) [Compound 20E2], the IC50 (HDAC2; [1]) was 500 to 1000 nM, the IC50 (Full length Human HDAC1) was less than 500 nM and the IC50 (Full length Human HDAC2) was less than 500 nM.
With Cc1cnc(C2CCN(C(=O)Nc3nc(-c4ccc(F)cc4F)ccc3N)C2)cn1 (stereo not shown) [Compound 18] the IC50 (HDAC2; [2]) was 550 nM, the IC50 (HDAC2; [1]) was 500 to 1000 nM and the IC50 (Full length Human HDAC1) was 500 to 1000 nM. The IC50 (Full length Human HDAC2) was 500 to 1000 nM.
With Nc1ccc(-c2ccc(F)s2)nc1NC(=O)N1CCC(c2ncccn2)C1 (single isomer, unassigned) [Compound 39] the IC50 (HDAC2; [1]) was greater than 2000 nM, the IC50 (Full length Human HDAC1) was 1000 to 2000 nM and the IC50 (Full length Human HDAC2) was 1000 to 2000 nM.
Compound Cc1ccnc(C2CCN(C(=O)Nc3nc(-c4ccc(F)cc4F)ccc3N)C2)n1 (stereo not shown) [Compound 10] has an IC50 (HDAC2; [1]) of 1000 to 2000 nM, an IC50 (Full length Human HDAC1) of less than 500 nM and an IC50 (Full length Human HDAC2) of 500 to 1000 nM.
Nc1ccc(-c2ccc(F)cc2)nc1NC(=O)N1CCC(c2ncc(F)cn2)C1 (single isomer, unassigned) [Compound 20E1] gave an IC50 (HDAC2; [1]) of 1000 to 2000 nM, an IC50 (Full length Human HDAC1) of 500 to 1000 nM and an IC50 (Full length Human HDAC2) of 500 to 1000 nM.
Nc1ccc(-c2ccc(F)cc2F)nc1NC(=O)N1CCC(c2cccnc2)C1 (stereo not shown) [Compound 2] was tested, and the IC50 (HDAC2; [1]) was greater than 2000 nM, the IC50 (Full length Human HDAC1) was 1000 to 2000 nM and the IC50 (Full length Human HDAC2) was greater than 2000 nM.
In the case of Nc1ccc(-c2ccc(F)cc2F)nc1NC(=O)N1CCC(c2ncc(F)cn2)C1 (single isomer, unassigned) [Compound 14E2], the IC50 (HDAC2; [1]) is reported as greater than 2000 nM, the IC50 (Full length Human HDAC1) is reported as 500 to 1000 nM and the IC50 (Full length Human HDAC2) is reported as greater than 2000 nM.
Nc1ccc(-c2ccc(F)cc2)nc1NC(=O)N1CCC(F)(c2ncc(F)cn2)C1 (single isomer, unassigned) [Compound 52] gave an IC50 (HDAC2; [1]) greater than 2000 nM, an IC50 (Full length Human HDAC1) of 500 to 1000 nM and an IC50 (Full length Human HDAC2) of 1000 to 2000 nM.
Work on Nc1ccc(-c2ccc(F)cc2F)nc1NC(=O)N1CCC(Cc2cccnn2)C1 (stereo not shown) [Compound 26] yielded an IC50 (HDAC2; [2]) of 535 nM, an IC50 (HDAC2; [1]) of 500 to 1000 nM and an IC50 (Full length Human HDAC1) of 1000 to 2000 nM. For the same compound, the IC50 (Full length Human HDAC2) was 1000 to 2000 nM.
With Nc1ccc(-c2ccc(F)cc2F)nc1NC(=O)N1CCC(F)(c2ncccn2)C1 (single isomer, unassigned) [Compound 29E1] the IC50 (HDAC2; [1]) was 500 to 1000 nM, the IC50 (Full length Human HDAC1) was less than 500 nM and the IC50 (Full length Human HDAC2) was less than 500 nM.
Nc1ccc(-c2ccc(F)cc2F)nc1NC(=O)N1CCC(c2ncc(F)cn2)C1 (stereo not shown) [Compound 14] gave an IC50 (HDAC2; [1]) of 1000 to 2000 nM, an IC50 (Full length Human HDAC1) of 500 to 1000 nM and an IC50 (Full length Human HDAC2) of 500 to 1000 nM.
In the case of Nc1ccc(-c2ccc(F)cc2)nc1NC(=O)N1CCC(c2ncc(F)cn2)C1 (stereo not shown) [Compound 20], the “fold more potent than Comparator A” value (HDAC2; [3]) is reported as greater than 2 fold, the “potency compared with Comparators A-C” value (HDAC2; [3]) is reported as “greater potency” and the IC50 (HDAC2; [2]) is reported as 1130 nM. For the same compound, the IC50 (HDAC2; [1]) was 1000 to 2000 nM, the IC50 (Full length Human HDAC1) was less than 500 nM and the IC50 (Full length Human HDAC2) was 500 to 1000 nM.
Nc1ccc(-c2ccc(F)cc2F)nc1NC(=O)N1CCC(c2ncc(F)cn2)C1 (single isomer, unassigned) [Compound 14E1] gave an IC50 (HDAC2; [1]) of 500 to 1000 nM, an IC50 (Full length Human HDAC1) of less than 500 nM and an IC50 (Full length Human HDAC2) of 500 to 1000 nM.
Cc1ccnc(C2CCN(C(=O)Nc3nc(-c4ccc(F)cc4)ccc3N)C2)n1 (single isomer, unassigned) [Compound 50] gave an IC50 (HDAC2; [1]) greater than 2000 nM, an IC50 (Full length Human HDAC1) of 1000 nM and an IC50 (Full length Human HDAC2) of 1000 to 2000 nM.
In the case of Nc1ccc(-c2ccc(F)cc2)nc1NC(=O)N1CCC(c2ncccn2)C1 (stereo not shown) [Compound 19], the “potency compared with Comparators A-C” value (HDAC2; [3]) is reported as “greater potency”, the IC50 (HDAC2; [2]) is reported as 421 nM and the IC50 (HDAC2; [1]) is reported as less than 500 nM. The IC50 (Full length Human HDAC1) was less than 500 nM and the IC50 (Full length Human HDAC2) was less than 500 nM.
With Cn1ccnc1CC1CCN(C(=O)Nc2nc(-c3ccc(F)cc3F)ccc2N)C1 (stereo not shown) [Compound 36] the IC50 (HDAC2; [1]) was 500 to 1000 nM, the IC50 (Full length Human HDAC1) was less than 500 nM and the IC50 (Full length Human HDAC2) was 500 to 1000 nM.
Compound Nc1ccc(-c2ccc(F)cc2)nc1NC(=O)N1CCC(c2ncccn2)C1 (single isomer, unassigned) [Compound 19E1] has an IC50 (HDAC2; [1]) of 1000 to 2000 nM, an IC50 (Full length Human HDAC1) of 500 to 1000 nM and an IC50 (Full length Human HDAC2) of less than 500 nM.
Work on Nc1ccc(-c2cccs2)nc1NC(=O)N1CCC(c2ncc(F)cn2)C1 (stereo not shown) [Compound 49] yielded an IC50 (HDAC2; [1]) of 1000 to 2000 nM, an IC50 (Full length Human HDAC1) of less than 500 nM and an IC50 (Full length Human HDAC2) of 1000 to 2000 nM.
In the case of Nc1ccc(-c2ccc(F)cc2F)nc1NC(=O)N1CCC(Oc2ncccn2)C1 (stereo not shown) [Compound 23], the IC50 (HDAC2; [1]) is reported as greater than 2000 nM, the IC50 (Full length Human HDAC1) is reported as greater than 2000 nM and the IC50 (Full length Human HDAC2) is reported as greater than 2000 nM.
For Cc1cnc(C2CCN(C(=O)Nc3nc(-c4ccc(F)cc4)ccc3N)C2)o1 (stereo not shown) [Compound 46], the IC50 (HDAC2; [1]) was greater than 2000 nM, the IC50 (Full length Human HDAC1) was 500 to 1000 nM and the IC50 (Full length Human HDAC2) was 1000 to 2000 nM.
Work on Nc1ccc(-c2ccc(F)cc2F)nc1NC(=O)N1CCC(c2ncccn2)C1 (racemic) [Compound 7] yielded an IC50 (HDAC2; [1]) of 500 to 1000 nM, an IC50 (Full length Human HDAC1) of less than 500 nM and an IC50 (Full length Human HDAC2) of 500 to 1000 nM.
